Results: US20210045385A1, “PYRIDAZINONE-SUBSTITUTED KETOXIMES AS HERBICIDES” (FMC Corporation, priority 2018, published 2021)

Columns and labels:
Format in all cases: in vivo
[1] = system: rice (Oryza sativa); assay: Test B flooded paddy test, visual plant response rating; conditions: 250 g ai/ha, Flood, applied to paddy water, 2-leaf stage, evaluated after 13 to 15 days
Method in brief: (§1)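 Seedlings at 2 leaves; compound into paddy water (3 cm flood, maintained); 13–15 d greenhouse; visual score relative to controls.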

[2] = system: sedge, umbrella (small-flower umbrella sedge, Cyperus difformis); assay: as above; conditions: 250 g ai/ha, Flood, applied to paddy water, 2-leaf stage, evaluated after 13 to 15 days
Method in brief: as §1

[3] = system: ducksalad (Heteranhera limosa); assay: as above; conditions: 250 g ai/ha, Flood, applied to paddy water, 2-leaf stage, evaluated after 13 to 15 days
Method in brief: as §1

[4] = system: barnyardgrass (Echinochloa crus-galli); assay: as above; conditions: 250 g ai/ha, Flood, applied to paddy water, 2-leaf stage, evaluated after 13 to 15 days
Method in brief: as §1

[5] = system: kochia (Kochia scoparia); assay: Test A postemergence, visual plant response rating; conditions: for Kochia plant response rating (0 to 100 scale): 500 g ai/ha, postemergence, 0 is no effect, 100 is complete control; for Kochia plant response rating: Postemergence, 125 g ai/ha, 0 to 100 scale (0 no effect, 100 complete control)
Method in brief: (§2)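 Ratings use a 0–100 visual scale (100 = complete control) against untreated controls, scored about 10 days after greenhouse treatment. Test chemicals were formulated in surfactant-containing non-phytotoxic solvent and applied either as soil spray after planting (preemergence) or onto one- to two-leaf, 2–10 cm plants (postemergence).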

[6] = system: foxtail, green (green foxtail, Setaria viridis); assay: Test A postemergence, visual plant response rating; conditions: for Foxtail, Green plant response rating (0 to 100 scale): 500 g ai/ha, postemergence, 0 is no effect, 100 is complete control; for Foxtail, Green plant response rating: Postemergence, 125 g ai/ha, 0 to 100 scale (0 no effect, 100 complete control)
Method in brief: as §2

[7] = system: pigweed (Amaranthus retroflexus); assay: Test A postemergence, visual plant response rating; conditions: for Pigweed plant response rating (0 to 100 scale): 500 g ai/ha, postemergence, 0 is no effect, 100 is complete control; for Pigweed plant response rating: Postemergence, 125 g ai/ha, 0 to 100 scale (0 no effect, 100 complete control)
Method in brief: as §2

[8] = system: ragweed (common ragweed, Ambrosia elatior); assay: Test A postemergence, visual plant response rating; conditions: for Ragweed plant response rating (0 to 100 scale): 500 g ai/ha, postemergence, 0 is no effect, 100 is complete control; for Ragweed plant response rating: Postemergence, 125 g ai/ha, 0 to 100 scale (0 no effect, 100 complete control)
Method in brief: as §2

[9] = system: barnyardgrass (Echinochloa crus-galli); assay: Test A postemergence, visual plant response rating; conditions: for Barnyardgrass plant response rating (0 to 100 scale): 500 g ai/ha, postemergence, 0 is no effect, 100 is complete control; for Barnyardgrass plant response rating: Postemergence, 125 g ai/ha, 0 to 100 scale (0 no effect, 100 complete control)
Method in brief: as §2

[10] = system: wheat (Triticum aestivum); assay: Test A postemergence, visual plant response rating; conditions: for Wheat plant response rating (0 to 100 scale): 500 g ai/ha, postemergence, 0 is no effect, 100 is complete control; for Wheat plant response rating: Postemergence, 125 g ai/ha, 0 to 100 scale (0 no effect, 100 complete control)
Method in brief: as §2

[11] = system: galium (catchweed bedstraw, Galium aparine); assay: Test A postemergence, visual plant response rating; conditions: for Galium plant response rating (0 to 100 scale): 500 g ai/ha, postemergence, 0 is no effect, 100 is complete control; for Galium plant response rating: Postemergence, 125 g ai/ha, 0 to 100 scale (0 no effect, 100 complete control)
Method in brief: as §2

[12] = system: Italian ryegrass (Lolium multiflorum); assay: Test A postemergence, visual plant response rating; conditions: for Ryegrass, Italian plant response rating (0 to 100 scale): 500 g ai/ha, postemergence, 0 is no effect, 100 is complete control; for Ryegrass, Italian plant response rating: Postemergence, 125 g ai/ha, 0 to 100 scale (0 no effect, 100 complete control)
Method in brief: as §2

[13] = system: corn (Zea mays); assay: Test A postemergence, visual plant response rating; conditions: for Corn plant response rating (0 to 100 scale): 500 g ai/ha, postemergence, 0 is no effect, 100 is complete control; for Corn plant response rating: Postemergence, 125 g ai/ha, 0 to 100 scale (0 no effect, 100 complete control)
Method in brief: as §2

[14] = system: blackgrass (Alopecurus myosuroides); assay: Test A postemergence, visual plant response rating; conditions: for Blackgrass plant response rating (0 to 100 scale): 500 g ai/ha, postemergence, 0 is no effect, 100 is complete control; for Blackgrass plant response rating: Postemergence, 125 g ai/ha, 0 to 100 scale (0 no effect, 100 complete control)
Method in brief: as §2

[15] = system: kochia (Kochia scoparia); assay: Test A preemergence, visual plant response rating; conditions: for Kochia plant response rating (0 to 100 scale): approx. 10 days
Method in brief: as §2

[16] = system: foxtail, green (green foxtail, Setaria viridis); assay: Test A preemergence, visual plant response rating; conditions: for Foxtail, Green plant response rating (0 to 100 scale): approx. 10 days
Method in brief: as §2

[17] = system: pigweed (Amaranthus retroflexus); assay: Test A preemergence, visual plant response rating; conditions: for Pigweed plant response rating (0 to 100 scale): approx. 10 days
Method in brief: as §2

[18] = system: ragweed (common ragweed, Ambrosia elatior); assay: Test A preemergence, visual plant response rating; conditions: for Ragweed plant response rating (0 to 100 scale): approx. 10 days
Method in brief: as §2

[19] = system: barnyardgrass (Echinochloa crus-galli); assay: Test A preemergence, visual plant response rating; conditions: for Barnyardgrass plant response rating (0 to 100 scale): approx. 10 days
Method in brief: as §2

[20] = system: Italian ryegrass (Lolium multiflorum); assay: Test A preemergence, visual plant response rating; conditions: for Ryegrass, Italian plant response rating (0 to 100 scale): approx. 10 days
Method in brief: as §2

[21] = 125 g ai/ha, preemergence, 0 to 100 scale, 0 no effect, 100 complete control

Structure (SMILES) | Plant response rating, Rice (0 to 100 scale, 0 is no effect, 100 is complete control) [1] | Plant response rating, Sedge, Umbrella (0 to 100 scale, 0 is no effect, 100 is complete control) [2] | Plant response rating, Ducksalad (0 to 100 scale, 0 is no effect, 100 is complete control) [3] | Plant response rating, Barnyardgrass (0 to 100 scale, 0 is no effect, 100 is complete control) [4] | Kochia plant response rating (0 to 100 scale) [5] | Kochia plant response rating [5] | Foxtail, Green plant response rating (0 to 100 scale) [6] | Foxtail, Green plant response rating [6] | Pigweed plant response rating (0 to 100 scale) [7] | Pigweed plant response rating [7] | Ragweed plant response rating (0 to 100 scale) [8] | Ragweed plant response rating [8] | Barnyardgrass plant response rating (0 to 100 scale) [9] | Barnyardgrass plant response rating [9] | Wheat plant response rating (0 to 100 scale) [10] | Wheat plant response rating [10] | Galium plant response rating (0 to 100 scale) [11] | Galium plant response rating [11] | Ryegrass, Italian plant response rating (0 to 100 scale) [12] | Ryegrass, Italian plant response rating [12] | further results
CO/N=C(\c1c(O)c(C)nn(C)c1=O)c1cccc2ccccc12 [Compound 26] | 0 | 0 | 0 | 0 | 90 | 80 | 80 | 60 | 90 | 60 | 100 | 90 | 60 | 50 | 10 | 0 | 100 | 90 | 70 | 70 | Corn plant response rating (0 to 100 scale) [13]: 30; Corn plant response rating [13]: 0; Blackgrass plant response rating (0 to 100 scale) [14]: 90; Blackgrass plant response rating [14]: 80; Kochia plant response rating (0 to 100 scale) ([15]; 125 g ai/ha Preemergence): 50; Kochia plant response rating (0 to 100 scale) ([15]; 500 g ai/ha Preemergence): 80; Foxtail, Green plant response rating (0 to 100 scale) ([16]; 125 g ai/ha Preemergence): 70; Foxtail, Green plant response rating (0 to 100 scale) ([16]; 500 g ai/ha Preemergence): 100; Pigweed plant response rating (0 to 100 scale) ([17]; 125 g ai/ha Preemergence): 100; Pigweed plant response rating (0 to 100 scale) ([17]; 500 g ai/ha Preemergence): 100; Ragweed plant response rating (0 to 100 scale) ([18]; 125 g ai/ha Preemergence): 90; Ragweed plant response rating (0 to 100 scale) ([18]; 500 g ai/ha Preemergence): 100; Barnyardgrass plant response rating (0 to 100 scale) ([19]; 125 g ai/ha Preemergence): 40; Barnyardgrass plant response rating (0 to 100 scale) ([19]; 500 g ai/ha Preemergence): 80; Ryegrass, Italian plant response rating (0 to 100 scale) ([20]; 125 g ai/ha Preemergence): 70; Ryegrass, Italian plant response rating (0 to 100 scale) ([20]; 500 g ai/ha Preemergence): 100
CO/N=C(\c1cc(C)ccc1C)c1c(O)c(C)nn(C)c1=O [Compound 66] | 0 | 0 | 0 | 0 | 40 | 20 | 20 | 0 | 50 | 50 | 50 | 40 | 30 | 10 | 10 | 0 | 80 | 60 | 80 | 30 | Corn plant response rating (0 to 100 scale) [13]: 0; Corn plant response rating [13]: 0; Blackgrass plant response rating (0 to 100 scale) [14]: 50; Blackgrass plant response rating [14]: 0; Kochia plant response rating [15, 21]: 0; Kochia plant response rating (0 to 100 scale) ([15]; 500 g ai/ha Preemergence): 20; Foxtail, Green plant response rating [16, 21]: 30; Foxtail, Green plant response rating (0 to 100 scale) ([16]; 500 g ai/ha Preemergence): 60; Pigweed plant response rating [17, 21]: 30; Pigweed plant response rating (0 to 100 scale) ([17]; 500 g ai/ha Preemergence): 80; Ragweed plant response rating [18, 21]: 20; Ragweed plant response rating (0 to 100 scale) ([18]; 500 g ai/ha Preemergence): 50; Barnyardgrass plant response rating [19, 21]: 0; Barnyardgrass plant response rating (0 to 100 scale) ([19]; 500 g ai/ha Preemergence): 20; Ryegrass, Italian plant response rating [20, 21]: 30; Ryegrass, Italian plant response rating (0 to 100 scale) ([20]; 500 g ai/ha Preemergence): 50
CCn1nc(C)c(O)c(/C(=N/OC)c2cccc(C)c2)c1=O [Compound 1] | 0 | 0 | 0 | 0 | 0 | 0 | 10 | 0 | 0 | 0 | 0 | 0 | 10 | 0 | 0 | 0 | 30 | 0 | 20 | 0 | Corn plant response rating (0 to 100 scale) [13]: 0; Corn plant response rating [13]: 0; Blackgrass plant response rating (0 to 100 scale) [14]: 20; Blackgrass plant response rating [14]: 0; Kochia plant response rating (0 to 100 scale) ([15]; 125 g ai/ha Preemergence): 0; Kochia plant response rating (0 to 100 scale) ([15]; 500 g ai/ha Preemergence): 0; Foxtail, Green plant response rating (0 to 100 scale) ([16]; 125 g ai/ha Preemergence): 10; Foxtail, Green plant response rating (0 to 100 scale) ([16]; 500 g ai/ha Preemergence): 30; Pigweed plant response rating (0 to 100 scale) ([17]; 125 g ai/ha Preemergence): 0; Pigweed plant response rating (0 to 100 scale) ([17]; 500 g ai/ha Preemergence): 0; Ragweed plant response rating (0 to 100 scale) ([18]; 125 g ai/ha Preemergence): 0; Ragweed plant response rating (0 to 100 scale) ([18]; 500 g ai/ha Preemergence): 10; Barnyardgrass plant response rating (0 to 100 scale) ([19]; 125 g ai/ha Preemergence): 0; Barnyardgrass plant response rating (0 to 100 scale) ([19]; 500 g ai/ha Preemergence): 0; Ryegrass, Italian plant response rating (0 to 100 scale) ([20]; 125 g ai/ha Preemergence): 0; Ryegrass, Italian plant response rating (0 to 100 scale) ([20]; 500 g ai/ha Preemergence): 40
CCO/N=C(/c1cccc(C)c1C)c1c(O)c(C)nn(C)c1=O [Compound 24] | 0 | 0 | 0 | 0 | 20 | 0 | 20 | 0 | 60 | 30 | 60 | 30 | 30 | 0 | 0 | 0 | 60 | 50 | 40 | 10 | Corn plant response rating (0 to 100 scale) [13]: 0; Corn plant response rating [13]: 0; Blackgrass plant response rating (0 to 100 scale) [14]: 40; Blackgrass plant response rating [14]: 10; Kochia plant response rating (0 to 100 scale) ([15]; 125 g ai/ha Preemergence): 0; Kochia plant response rating (0 to 100 scale) ([15]; 500 g ai/ha Preemergence): 0; Foxtail, Green plant response rating (0 to 100 scale) ([16]; 125 g ai/ha Preemergence): 20; Foxtail, Green plant response rating (0 to 100 scale) ([16]; 500 g ai/ha Preemergence): 60; Pigweed plant response rating (0 to 100 scale) ([17]; 125 g ai/ha Preemergence): 20; Pigweed plant response rating (0 to 100 scale) ([17]; 500 g ai/ha Preemergence): 40; Ragweed plant response rating (0 to 100 scale) ([18]; 125 g ai/ha Preemergence): 30; Ragweed plant response rating (0 to 100 scale) ([18]; 500 g ai/ha Preemergence): 60; Barnyardgrass plant response rating (0 to 100 scale) ([19]; 125 g ai/ha Preemergence): 0; Barnyardgrass plant response rating (0 to 100 scale) ([19]; 500 g ai/ha Preemergence): 10; Ryegrass, Italian plant response rating (0 to 100 scale) ([20]; 125 g ai/ha Preemergence): 10; Ryegrass, Italian plant response rating (0 to 100 scale) ([20]; 500 g ai/ha Preemergence): 50
